Source: patent US20200331882A1, “COMPOUND FOR SIMULTANEOUSLY INHIBITING LSD1 AND HDAC TARGETS AND APPLICATION THEREOF” (PEKING UNIVERSITY SHENZHEN GRADUATE SCHOOL, priority 2018, published 2020)
Like-named read-outs stand apart in the source and are kept apart here.

What was measured:
Assay in all cases: CellTiter-Glo cell proliferation
Assay type in all cases: cell-based
143B = settings: CTG, 72 hours; for % inhibition at top conc.: highest concentration 10/50 μM; for IC50: read-out: Absolute IC50
Method: (§1) The effect of the present invention compound ZZY-003 on the cell proliferation of 50 cell lines was evaluated by CellTiter-Glo (CTG) method, and the 50% inhibitory concentration was calculated by detecting the cell viability after treatment with different drug concentrations. The cells were resuscitated and cultured in their respective culture media. The cells in logarithmic growth phase were harvested and the cells were counted by cell counter. The cell viability was detected by Trypan blue exclusion method to ensure that the cell line viability was more than 96%. The cell concentration was adjusted by diluting with the culture medium, and 90 μL cell suspension was added to the 96-well cell plate (including the cell control T0 on the day of drug treatment) to make the cell density reach the specified concentration. The cells in the 96-well plate were cultured overnight at 37° C., 5% CO2 and 95% humidity. 10 μL culture medium was added to the control cell culture plate. CellTiter-Glo reagent and cell culture plate were placed at room temperature to balance for 30 minutes. The same volume of CellTiter-Glo reagent was added to each well. Vibrate on the orbital shaker for 2 min to make the cells fully lytic. The cell culture plate was placed at room temperature to balance for 10 minutes. Chemiluminescence values were read with EnVision. The storage solution was formed by dissolving the tested compound with the corresponding solvent and diluted in gradient to obtain 10 times working concentration solution, and 10 times solution of positive drug was also prepared. 10 μL drug solution was added to each well in the 96-well plate in which the cells were inoculated, and each cell concentration was provided with three duplicate wells. The highest concentration of the tested compound was 10/50 μM, 9 concentrations and 3.16 times dilution. The cells in the 96-well plate added with drug were cultured at 37° C., 5% CO2 and 95% humidity for 72 hours. CellTiter-Glo reagent and drug-treated cell culture plate were placed at room temperature to balance for 30 minutes. The same volume of CellTiter-Glo reagent was added to each well. Vibrate on the orbital shaker for 2 minutes to make the cells fully lytic. The cell culture plate was placed at room temperature to balance for 10 minutes. Chemiluminescence values were read with EnVision. Data processing: […] Cell survival rate (%)=(Lum drug to be detected−Lum culture medium control)/(Lum cell control−Lum culture medium control)×100%; Lum cell control−Lum culture medium control was set to 100%, LumMedium control value was set to 0%;

AMO-1 = settings: 72 hours; for % inhibition at top conc.: highest concentration 10/50 μM; for IC50: read-out: Absolute IC50
Method: as §1

AN3 CA = settings: CTG, 72 hours; for % inhibition at top conc.: highest concentration 10/50 μM; for IC50: read-out: Absolute IC50
Method: as §1

AZ-521 = settings: CTG, 72 hours; for % inhibition at top conc.: highest concentration 10/50 μM; for IC50: read-out: Absolute IC50
Method: as §1

BT474 = settings: 72 hours; for % inhibition at top conc.: highest concentration 10/50 μM; for IC50: read-out: Absolute IC50
Method: as §1

CNE-2Z = settings: CTG, 72 hours; for % inhibition at top conc.: highest concentration 10/50 μM; for IC50: read-out: Absolute IC50
Method: as §1

EBC-1 = settings: CTG, 72 hours; for % inhibition at top conc.: highest concentration 10/50 μM; for IC50: read-out: Absolute IC50
Method: as §1

H69AR = settings: CTG, 72 hours; for % inhibition at top conc.: highest concentration 10/50 μM; for IC50: read-out: Absolute IC50
Method: as §1

HCT-116 = settings: CTG, 72 hours; for % inhibition at top conc.: highest concentration 10/50 μM; for IC50: read-out: Absolute IC50
Method: as §1

HL-60 = settings: CTG, 72 hours; for % inhibition at top conc.: highest concentration 10/50 μM; for IC50: read-out: Absolute IC50
Method: as §1

HeLa = settings: CTG, 72 hours; for % inhibition at top conc.: highest concentration 10/50 μM; for IC50: read-out: Absolute IC50
Method: as §1

Hep G2 = settings: 72 hours; for % inhibition at top conc.: highest concentration 10/50 μM; for IC50: read-out: Absolute IC50
Method: as §1

JVM-3 = settings: CTG, 72 hours; for % inhibition at top conc.: highest concentration 10/50 μM; for IC50: read-out: Absolute IC50
Method: as §1

Jurkat clone E6-1 = settings: CTG, 72 hours; for % inhibition at top conc.: highest concentration 10/50 μM; for IC50: read-out: Absolute IC50
Method: as §1

K-562 = settings: 72 hours; for % inhibition at top conc.: highest concentration 10/50 μM; for IC50: read-out: Absolute IC50
Method: as §1

LP-1 = settings: CTG, 72 hours; for % inhibition at top conc.: highest concentration 10/50 μM; for IC50: read-out: Absolute IC50
Method: as §1

MCF 10A = settings: CTG, 72 hours; for % inhibition at top conc.: highest concentration 10/50 μM; for IC50: read-out: Absolute IC50
Method: as §1

MCF7 = settings: CTG, 72 hours; for % inhibition at top conc.: highest concentration 10/50 μM
Method: as §1

MIA PaCa-2 = settings: CTG, 72 hours; for % inhibition at top conc.: highest concentration 10/50 μM; for IC50: read-out: Absolute IC50
Method: as §1

NCI-H1299 = settings: CTG, 72 hours; for % inhibition at top conc.: highest concentration 10/50 μM; for IC50: read-out: Absolute IC50
Method: as §1

OE19 = settings: CTG, 72 hours; for % inhibition at top conc.: highest concentration 10/50 μM; for IC50: read-out: Absolute IC50
Method: as §1

OPM2 = settings: 72 hours; for % inhibition at top conc.: highest concentration 10/50 μM; for IC50: read-out: Absolute IC50
Method: as §1

Ramos = settings: CTG, 72 hours; for % inhibition at top conc.: highest concentration 10/50 μM; for IC50: read-out: Absolute IC50
Method: as §1

SF268 = settings: 72 hours; for % inhibition at top conc.: highest concentration 10/50 μM; for IC50: read-out: Absolute IC50
Method: as §1

SK-MEL-28 = settings: CTG, 72 hours; for % inhibition at top conc.: highest concentration 10/50 μM; for IC50: read-out: Absolute IC50
Method: as §1

SK-N-FI = settings: CTG, 72 hours; for % inhibition at top conc.: highest concentration 10/50 μM; for IC50: read-out: Absolute IC50
Method: as §1

SK-OV-3 = settings: CTG, 72 hours; for % inhibition at top conc.: highest concentration 10/50 μM; for IC50: read-out: Absolute IC50
Method: as §1

SW480 = settings: CTG, 72 hours; for % inhibition at top conc.: highest concentration 10/50 μM; for IC50: read-out: Absolute IC50
Method: as §1

T84 = settings: CTG, 72 hours; for % inhibition at top conc.: highest concentration 10/50 μM; for IC50: read-out: Absolute IC50
Method: as §1

## N.N.[Cl][Pt][Cl] [Cisplatin, reference compound]
143B
  % inhibition at top conc.: 99.94%
  IC50: 1150 nM
AMO-1; CTG
  % inhibition at top conc.: 99.99%
  IC50: 950 nM
AN3 CA
  % inhibition at top conc.: 99.96%
  IC50: 4430 nM
AZ-521
  % inhibition at top conc.: 99.92%
  IC50: 2890 nM
BT474; CTG
  % inhibition at top conc.: 67.02%
  IC50: 66100 nM
CNE-2Z
  % inhibition at top conc.: 96.44%
  IC50: 1180 nM
EBC-1
  % inhibition at top conc.: 85.11%
  IC50: 17800 nM
H69AR
  % inhibition at top conc.: 94.93%
  IC50: 5650 nM
HCT-116
  % inhibition at top conc.: 95.72%
  IC50: 3150 nM
HL-60
  % inhibition at top conc.: 99.99%
  IC50: 1560 nM
HeLa
  % inhibition at top conc.: 99.45%
  IC50: 370 nM
Hep G2; CTG
  % inhibition at top conc.: 90.70%
  IC50: 5860 nM
JVM-3
  % inhibition at top conc.: 99.71%
  IC50: 700 nM
Jurkat clone E6-1
  % inhibition at top conc.: 99.96%
  IC50: 840 nM
K-562; CTG
  % inhibition at top conc.: 97.45%
  IC50: 6070 nM
LP-1
  % inhibition at top conc.: 99.89%
  IC50: 8680 nM
MCF 10A
  % inhibition at top conc.: 99.51%
  IC50: 13200 nM
MCF7
  % inhibition at top conc.: 90.30%
MIA PaCa-2
  % inhibition at top conc.: 99.18%
  IC50: 6050 nM
NCI-H1299
  % inhibition at top conc.: 98.91%
  IC50: 3690 nM
OE19
  % inhibition at top conc.: 62.99%
  IC50: 25800 nM
OPM2; CTG
  % inhibition at top conc.: 99.97%
  IC50: 3670 nM
Ramos
  % inhibition at top conc.: 99.98%
  IC50: 1780 nM
SF268; CTG
  % inhibition at top conc.: 97.98%
  IC50: 2870 nM
SK-MEL-28
  % inhibition at top conc.: 99.34%
  IC50: 8610 nM
SK-N-FI
  % inhibition at top conc.: 99.81%
  IC50: 10200 nM
SK-OV-3
  % inhibition at top conc.: 89.16%
  IC50: 5170 nM
SW480
  % inhibition at top conc.: 94.12%
  IC50: 2690 nM
T84
  % inhibition at top conc.: 87.03%
  IC50: 5050 nM

## Cc1ccc(C(=O)Nc2cc(N3CCNCC3)ccc2-c2ccc(/C=C/C(=O)NO)cc2C)cc1.Cl [ZZY-003]
143B
  % inhibition at top conc.: 99.97%
143B; Homo sapiens
  IC50: 2250 nM
AMO-1; CTG
  % inhibition at top conc.: 99.95%
AMO-1; Homo sapiens, AMO1, CTG
  IC50: 1520 nM
AN3 CA
  % inhibition at top conc.: 99.92%
AN3 CA; Homo sapiens
  IC50: 1270 nM
AZ-521
  % inhibition at top conc.: 99.95%
AZ-521; Homo sapiens
  IC50: 680 nM
BT474; CTG
  % inhibition at top conc.: 99.86%
BT474; Homo sapiens, BT-474, CTG
  IC50: 510 nM
CNE-2Z
  % inhibition at top conc.: 99.84%
CNE-2Z; Homo sapiens, CNE2Z
  IC50: 1520 nM
EBC-1
  % inhibition at top conc.: 92.30%
EBC-1; Homo sapiens
  IC50: 1150 nM
H69AR
  % inhibition at top conc.: 96.23%
H69AR; Homo sapiens
  IC50: 4360 nM
HCT-116
  % inhibition at top conc.: 99.94%
HCT-116; Homo sapiens
  IC50: 430 nM
HL-60
  % inhibition at top conc.: 99.93%
HL-60; Homo sapiens
  IC50: 310 nM
HeLa
  % inhibition at top conc.: 98.88%
HeLa; Homo sapiens
  IC50: 1400 nM
Hep G2; CTG
  % inhibition at top conc.: 99.98%
Hep G2; Homo sapiens, HepG2, CTG
  IC50: 840 nM
JVM-3
  % inhibition at top conc.: 99.48%
JVM-3; Homo sapiens
  IC50: 350 nM
Jurkat clone E6-1
  % inhibition at top conc.: 99.61%
Jurkat clone E6-1; Homo sapiens
  IC50: 480 nM
K-562; CTG
  % inhibition at top conc.: 99.85%
K-562; Homo sapiens, K562, CTG
  IC50: 460 nM
LP-1
  % inhibition at top conc.: 98.94%
LP-1; Homo sapiens
  IC50: 260 nM
MCF 10A
  % inhibition at top conc.: 97.73%
MCF 10A; Homo sapiens
  IC50: 1490 nM
MCF7
  % inhibition at top conc.: 96.26%
MCF7; Homo sapiens, read-out: Absolute IC50
  IC50: 1610 nM
MIA PaCa-2
  % inhibition at top conc.: 99.94%
MIA PaCa-2; Homo sapiens
  IC50: 480 nM
NCI-H1299
  % inhibition at top conc.: 99.94%
NCI-H1299; Homo sapiens
  IC50: 3400 nM
OE19
  % inhibition at top conc.: 98.95%
OE19; Homo sapiens
  IC50: 780 nM
OPM2; CTG
  % inhibition at top conc.: 98.99%
OPM2; Homo sapiens, OPM-2, CTG
  IC50: 350 nM
Ramos
  % inhibition at top conc.: 99.82%
Ramos; Homo sapiens
  IC50: 320 nM
SF268; CTG
  % inhibition at top conc.: 99.82%
SF268; Homo sapiens, SF-268, CTG
  IC50: 1090 nM
SK-MEL-28
  % inhibition at top conc.: 99.89%
SK-MEL-28; Homo sapiens
  IC50: 1240 nM
SK-N-FI
  % inhibition at top conc.: 99.95%
SK-N-FI; Homo sapiens
  IC50: 3170 nM
SK-OV-3
  % inhibition at top conc.: 99.68%
SK-OV-3; Homo sapiens
  IC50: 1590 nM
SW480
  % inhibition at top conc.: 99.24%
SW480; Homo sapiens
  IC50: 1740 nM
T84
  % inhibition at top conc.: 98.70%
T84; Homo sapiens
  IC50: 9950 nM
